Experimental data taken from patent publication US20230312550A1, “N-(2-(4-CYANOTHIAZOLIDIN-3-YL)-2-OXOETHYL)-QUINOLINE-4-CARBOXAMIDES” (AstraZeneca AB, priority 2020, published 2023).
In brackets after ≈: the same amount, converted by molar mass.

What was measured:
[1] = target: human Fibroblast activation protein alpha (hFAP) (Homo sapiens (Human), UniProt Q12884); assay: hFAP inhibition assay (tight binders); type: biochemical; conditions: Ala-Pro-AMC 20 μM, n = 1 or geometric mean n = 2-6; also: hFAP 2.4 pM
Experimental: The plates were read on a PHERAstar® reader with excitation 340 nm and emission 460 nm. Data were analyzed in Genedata Screener®. IC50 values were determined by plotting % inhibition versus log compound concentration and using a one site dose response model.

[2] = target: hFAP (M39-A757) (Homo sapiens (Human), UniProt Q12884); assay: hFAP binding assay (surface plasmon resonance); conditions: SPR, 20° C.; for hFAP Binding assay k(off) / hFAP Binding assay k(on): single cycle kinetics; for Kd: n = 1 or geometric mean n = 2-4
[3] = target: T1, FAP (Homo sapiens (Human), UniProt Q12884); assay: FAP plasma inhibition assay, human plasma; type: biochemical; conditions: human plasma diluted 1:40, Ala-Pro-AMC 75 μM
Experimental: (§1) This assay was adapted from the method described in Example 237 for detection of FAP target engagement enzyme activity in plasma. Plasma (anticoagulant K2EDTA) was used as the enzyme source: Human plasma (Pooled from AZ Biobank), Mouse plasma (AZ AST Biobank), and Cynomolgus plasma (BioIVT, #NHP00PLK2FNN, lot CYN222895). 384-Well black fluotrack PS plates (Greiner 781076) were used. 20 μL diluted plasma (Cynomolgus and Human plasma dilution 1:40, Mouse plasma dilution 1:67) in buffer (PBS, 0.1% BSA) was added to 0.6 μL compounds (in DMSO). Compounds were tested using 10 CR, 3 fold dilution series from 500 nM FAC. Two replicates for each assay point were run on the same plate. A fluorescence blank read was taken before substrate addition. […] Plates were incubated for 40 min at rt in the dark. […] IC50 values were determined by plotting % inhibition versus log compound concentration.
Target sequence in this assay (Q12884 24-760): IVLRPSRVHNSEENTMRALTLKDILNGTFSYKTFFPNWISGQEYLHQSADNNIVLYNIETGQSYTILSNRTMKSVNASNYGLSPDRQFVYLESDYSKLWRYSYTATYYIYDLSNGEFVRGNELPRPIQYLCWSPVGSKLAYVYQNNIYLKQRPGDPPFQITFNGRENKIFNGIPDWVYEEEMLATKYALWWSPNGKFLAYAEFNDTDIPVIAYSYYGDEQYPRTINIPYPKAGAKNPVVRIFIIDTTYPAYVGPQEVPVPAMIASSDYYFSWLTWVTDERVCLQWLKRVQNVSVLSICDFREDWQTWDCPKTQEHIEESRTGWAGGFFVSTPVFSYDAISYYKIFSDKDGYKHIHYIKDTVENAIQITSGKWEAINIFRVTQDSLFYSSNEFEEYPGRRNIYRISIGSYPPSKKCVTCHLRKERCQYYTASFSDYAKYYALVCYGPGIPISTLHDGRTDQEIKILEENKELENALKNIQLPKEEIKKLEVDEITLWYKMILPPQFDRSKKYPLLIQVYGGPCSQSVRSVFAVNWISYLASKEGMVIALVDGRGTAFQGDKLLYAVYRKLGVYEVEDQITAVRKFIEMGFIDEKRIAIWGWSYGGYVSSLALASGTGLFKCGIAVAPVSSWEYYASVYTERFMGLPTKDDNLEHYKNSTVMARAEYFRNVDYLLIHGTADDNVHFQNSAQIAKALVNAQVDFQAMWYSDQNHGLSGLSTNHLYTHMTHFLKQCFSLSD

[4] = target: FAP (Mus musculus (Mouse), UniProt P97321); assay: FAP plasma inhibition assay, mouse plasma; type: biochemical; conditions: mouse plasma diluted 1:67, Ala-Pro-AMC 75 μM
Experimental: as §1

[5] = target: Prolyl endopeptidase, Prolyl Oligopeptidase (hPREP) (Homo sapiens (Human), UniProt P48147); assay: hPrep inhibition assay; type: biochemical; conditions: hPREP 0.6 nM, Z-Gly-Pro-amino-methylcoumarin 50 μM; read-out: PREP IC50
Procedure, shortened: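 Fluorogenic read-out (340 nm excitation, 460 nm emission) after 20 min at rt, using 50 μM final Z-Gly-Pro-aminomethylcoumarin and 0.6 nM final enzyme, following 15 min compound preincubation. Buffer pH 7.5 with glutathione and Triton X-100. IC50 via one-site model on % inhibition vs log concentration.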

[6] = Kinetic solubility; conditions: kinetic from dmso stock, Solubility, kinetic solubility; n = 1 or average of n = 2-3
Experimental: Kinetic solubility was measured as described in Comput Aided Mol Des 2015, 29, 795.

[7] = Caco-2 cell permeability; conditions: human
Experimental: Caco-2 cell permeability was measured as described in Mol Pharm 2017, 14, 1601.

[8] = Metabolic stability in rat hepatocytes (rHep); conditions: n = 1 or geometric mean of n = 2-3
[9] = Metabolic stability in human liver microsomes (HLM); conditions: human, HLM CLint, n = 1 or average of n = 2-3
Experimental: Metabolic stability in HLM was measured as described in J Comput Aided Mol Des 2015, 29, 795.

[10] = target: T1, FAP; assay: hFAP inhibition assay; type: biochemical; conditions: hFAP […], Ala-Pro-AMC 20 μM; n = 1 or geometric mean n = 2-3
Procedure, shortened: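 Compounds (10-point, 3-fold dilutions from 50 μM top) were preincubated 15 min at rt in the dark with 0.48 nM hFAP in pH 7.4 Tris/NaCl/Chaps buffer. Reaction was started with substrate (40 μM solution) and ran 30 min at rt. Read by fluorescence (340/460 nm); IC50 from one-site fit.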
Target sequence in this assay (Q12884 38-760): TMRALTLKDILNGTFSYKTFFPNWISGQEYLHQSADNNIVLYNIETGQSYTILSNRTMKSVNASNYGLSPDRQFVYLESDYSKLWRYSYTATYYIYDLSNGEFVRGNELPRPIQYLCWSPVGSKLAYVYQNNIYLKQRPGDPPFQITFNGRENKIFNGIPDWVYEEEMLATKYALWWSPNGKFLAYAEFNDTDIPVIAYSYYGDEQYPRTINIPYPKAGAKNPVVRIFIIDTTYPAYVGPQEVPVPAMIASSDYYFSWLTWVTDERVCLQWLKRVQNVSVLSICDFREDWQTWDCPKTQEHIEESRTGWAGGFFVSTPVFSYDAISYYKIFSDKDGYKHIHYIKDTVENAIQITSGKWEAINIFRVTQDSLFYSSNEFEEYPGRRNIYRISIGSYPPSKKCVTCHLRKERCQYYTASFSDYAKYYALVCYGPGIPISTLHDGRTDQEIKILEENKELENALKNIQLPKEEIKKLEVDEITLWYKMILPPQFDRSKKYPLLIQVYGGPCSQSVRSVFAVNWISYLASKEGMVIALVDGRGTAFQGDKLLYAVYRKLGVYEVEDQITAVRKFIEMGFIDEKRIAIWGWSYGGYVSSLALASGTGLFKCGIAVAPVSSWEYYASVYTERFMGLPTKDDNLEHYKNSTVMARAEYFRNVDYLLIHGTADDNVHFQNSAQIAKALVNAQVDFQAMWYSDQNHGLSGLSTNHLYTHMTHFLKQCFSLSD

[11] = Metabolic stability in human hepatocytes (hHep); type: in vitro ADME; conditions: n = 1 or geometric mean of n = 2

Sequence of human Fibroblast activation protein alpha (hFAP) (Q12884 38-760): as above
Sequence of FAP (Mus musculus (Mouse), UniProt P97321) (P97321 24-761): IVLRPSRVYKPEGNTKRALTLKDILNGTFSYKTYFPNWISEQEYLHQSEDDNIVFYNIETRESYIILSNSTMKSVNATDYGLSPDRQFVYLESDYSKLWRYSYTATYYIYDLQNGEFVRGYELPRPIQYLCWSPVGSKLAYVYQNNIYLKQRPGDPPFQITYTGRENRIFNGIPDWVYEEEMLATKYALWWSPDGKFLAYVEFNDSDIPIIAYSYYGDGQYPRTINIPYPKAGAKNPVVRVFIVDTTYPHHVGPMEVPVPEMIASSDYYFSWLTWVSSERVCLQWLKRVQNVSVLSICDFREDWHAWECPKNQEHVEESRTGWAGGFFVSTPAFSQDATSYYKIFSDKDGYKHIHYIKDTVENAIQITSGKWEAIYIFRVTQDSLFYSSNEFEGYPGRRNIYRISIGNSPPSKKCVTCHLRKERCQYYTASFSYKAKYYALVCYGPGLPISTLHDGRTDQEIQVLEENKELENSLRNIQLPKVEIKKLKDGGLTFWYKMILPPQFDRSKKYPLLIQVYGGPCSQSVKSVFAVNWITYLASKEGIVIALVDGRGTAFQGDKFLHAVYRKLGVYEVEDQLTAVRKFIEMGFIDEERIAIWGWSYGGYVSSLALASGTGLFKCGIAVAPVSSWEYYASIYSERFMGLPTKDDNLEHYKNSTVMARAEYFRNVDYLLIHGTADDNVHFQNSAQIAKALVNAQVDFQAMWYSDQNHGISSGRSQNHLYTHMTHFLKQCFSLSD
Sequence of hFAP (M39-A757) (Q12884 39-757): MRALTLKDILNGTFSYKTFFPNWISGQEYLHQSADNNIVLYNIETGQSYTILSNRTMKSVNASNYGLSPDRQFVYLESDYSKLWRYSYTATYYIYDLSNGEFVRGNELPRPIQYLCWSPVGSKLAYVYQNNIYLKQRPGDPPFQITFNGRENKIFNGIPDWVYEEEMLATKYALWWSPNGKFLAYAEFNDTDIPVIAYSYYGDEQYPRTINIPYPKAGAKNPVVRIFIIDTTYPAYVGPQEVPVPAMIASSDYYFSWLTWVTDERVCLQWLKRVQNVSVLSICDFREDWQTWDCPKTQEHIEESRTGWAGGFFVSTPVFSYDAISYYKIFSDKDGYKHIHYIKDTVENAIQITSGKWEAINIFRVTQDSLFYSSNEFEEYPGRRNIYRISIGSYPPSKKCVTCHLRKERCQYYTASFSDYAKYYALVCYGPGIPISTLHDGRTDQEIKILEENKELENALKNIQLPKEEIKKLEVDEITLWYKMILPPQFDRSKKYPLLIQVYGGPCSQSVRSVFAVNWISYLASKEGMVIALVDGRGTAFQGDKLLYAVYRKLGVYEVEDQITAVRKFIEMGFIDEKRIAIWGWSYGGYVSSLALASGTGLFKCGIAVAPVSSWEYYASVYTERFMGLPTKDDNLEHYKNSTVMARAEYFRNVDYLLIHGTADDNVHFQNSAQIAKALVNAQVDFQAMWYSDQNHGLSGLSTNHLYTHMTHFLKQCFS
Sequence of Prolyl endopeptidase, Prolyl Oligopeptidase (hPREP) (P48147 whole entry): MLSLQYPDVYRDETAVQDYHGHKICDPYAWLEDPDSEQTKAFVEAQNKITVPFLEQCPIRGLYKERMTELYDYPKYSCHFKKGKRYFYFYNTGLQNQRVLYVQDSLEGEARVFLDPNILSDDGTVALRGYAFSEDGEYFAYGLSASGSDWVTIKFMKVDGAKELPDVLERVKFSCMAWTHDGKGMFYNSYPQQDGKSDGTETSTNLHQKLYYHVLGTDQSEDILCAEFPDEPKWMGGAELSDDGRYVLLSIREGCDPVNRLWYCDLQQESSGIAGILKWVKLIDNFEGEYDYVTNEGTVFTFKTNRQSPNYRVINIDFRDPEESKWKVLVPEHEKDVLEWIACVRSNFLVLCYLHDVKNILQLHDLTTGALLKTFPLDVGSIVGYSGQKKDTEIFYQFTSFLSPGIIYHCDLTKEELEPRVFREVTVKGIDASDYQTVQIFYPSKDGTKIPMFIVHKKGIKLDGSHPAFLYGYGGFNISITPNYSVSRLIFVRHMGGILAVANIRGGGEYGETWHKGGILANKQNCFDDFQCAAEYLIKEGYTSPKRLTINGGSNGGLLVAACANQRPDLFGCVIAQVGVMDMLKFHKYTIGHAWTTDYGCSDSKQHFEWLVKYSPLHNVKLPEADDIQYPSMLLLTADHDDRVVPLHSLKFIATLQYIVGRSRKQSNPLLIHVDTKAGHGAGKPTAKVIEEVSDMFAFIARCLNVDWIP

| Structure (SMILES) | IC50 [1] | hFAP Binding assay k(off) [2] | hFAP Binding assay k(on) [2] | Kd [2] | IC50 [3] | IC50 [4] | IC50 [5] | solubility [6] | Papp A→B [7] | Papp B→A [7] | efflux ratio [7] | rHep CLint [8] | microsomal CLint [9] | IC50 [10] | hHep CLint [11] | Papp [7] |
| --- | --- | --- | --- | --- | --- | --- | --- | --- | --- | --- | --- | --- | --- | --- | --- | --- |
| C[C@H]1CCCN(c2ccc3nccc(C(=O)NCC(=O)N4CSC[C@H]4C#N)c3c2)C1=O (single isomer, unassigned) [Example 203, N-(2-((R)-4-Cyanothiazolidin-3-yl)-2-oxoethyl)-6-((R*)-3-methyl-2-oxopiperidin-1-yl)quinoline-4-carboxamide] | 0.26 nM | 0.000063 s⁻¹ | 440000 M⁻¹ s⁻¹ | 0.15 nM | 0.4 nM | 0.5 nM | 3500 nM | 540 µM (≈ 236 µg/mL) | 0.4 ×10⁻⁶ cm/s | 8 ×10⁻⁶ cm/s | 20 | 2.9 μL/min/1E6 | 12 µL/min/mg |  |  |  |
| C[C@@H]1CCCN(c2ccc3nccc(C(=O)NCC(=O)N4CSC[C@H]4C#N)c3c2)C1=O (single isomer, unassigned) [Example 204, N-(2-((R)-4-Cyanothiazolidin-3-yl)-2-oxoethyl)-6-((R*)-3-methyl-2-oxopiperidin-1-yl)quinoline-4-carboxamide] | 0.067 nM | 0.000058 s⁻¹ | 850000 M⁻¹ s⁻¹ | 0.068 nM | 0.2 nM | 0.3 nM | 920 nM | 480 µM (≈ 210 µg/mL) | 0.44 ×10⁻⁶ cm/s | 8.5 ×10⁻⁶ cm/s | 19 | 1.8 μL/min/1E6 | 8 µL/min/mg |  |  |  |
| CC1(C)OCCN(c2ccc3nccc(C(=O)NCC(=O)N4CSC[C@H]4C#N)c3c2)C1=O [Example 16, (R)—N-(2-(4-Cyanothiazolidin-3-yl)-2-oxoethyl)-6-(2,2-dimethyl-3-oxomorpholino)quinoline-4-carboxamide] | 0.11 nM | 0.000041 s⁻¹ | 740000 M⁻¹ s⁻¹ | 0.054 nM | 0.2 nM | 0.4 nM | 1600 nM | 170 µM (≈ 77.1 µg/mL) | 0.16 ×10⁻⁶ cm/s | 4.2 ×10⁻⁶ cm/s | 26 | <1 μL/min/1E6 | < 3 µL/min/mg |  |  |  |
| CC1(C)Cc2c(-c3ccc4nccc(C(=O)NCC(=O)N5CSC[C@H]5C#N)c4c3)cnn2C1 [Example 123, (R)—N-(2-(4-Cyanothiazolidin-3-yl)-2-oxoethyl)-6-(5,5-dimethyl-5,6-dihydro-4H-pyrrolo[1,2-b]pyrazol-3-yl)quinoline-4-carboxamide] | 0.083 nM | 0.00042 s⁻¹ | 3000000 M⁻¹ s⁻¹ | 0.14 nM |  |  | 740 nM | 280 µM (≈ 129 µg/mL) | 0.17 ×10⁻⁶ cm/s | 29 ×10⁻⁶ cm/s | 170 | 7.1 μL/min/1E6 | 32 µL/min/mg | 0.25 nM | 1.6 μL/min/1E6 | 14 ×10⁻⁶ cm/s |
| CC(F)(F)C1CN(c2ccc3nccc(C(=O)NCC(=O)N4CSC[C@H]4C#N)c3c2)C1 [Example 147, (R)—N-(2-(4-Cyanothiazolidin-3-yl)-2-oxoethyl)-6-(3-(1,1-difluoroethyl)-azetidin-1-yl)quinoline-4-carboxamide] | 0.067 nM | 0.00012 s⁻¹ | 2800000 M⁻¹ s⁻¹ | 0.045 nM | 0.1 nM | 0.2 nM | 570 nM | 40 µM (≈ 17.8 µg/mL) | 2.7 ×10⁻⁶ cm/s | 40 ×10⁻⁶ cm/s | 15 | 2.9 μL/min/1E6 | 17 µL/min/mg |  |  |  |
| COc1ccc(-c2ccc3nccc(C(=O)NCC(=O)N4CSC[C@H]4C#N)c3c2)cn1 [Example 178, (R)—N-(2-(4-Cyanothiazolidin-3-yl)-2-oxoethyl)-6-(6-methoxypyridin-3-yl)quinoline-4-carboxamide] | 0.042 nM | 0.00017 s⁻¹ | 3100000 M⁻¹ s⁻¹ | 0.053 nM | 0.1 nM | 0.1 nM | 120 nM | 6 µM (≈ 2.6 µg/mL) |  |  |  | 7.2 μL/min/1E6 | 16 µL/min/mg | 0.2 nM |  |  |
| CC1(CS(C)(=O)=O)CN(c2ccc3nccc(C(=O)NCC(=O)N4CSC[C@H]4C#N)c3c2)C1 [Example 188, (R)—N-(2-(4-Cyanothiazolidin-3-yl)-2-oxoethyl)-6-(3-methyl-3-((methylsulfonyl)methyl)azetidin-1-yl)quinoline-4-carboxamide] | 0.19 nM | 0.000022 s⁻¹ | 2600000 M⁻¹ s⁻¹ | 0.011 nM |  |  | 430 nM | 990 µM (≈ 483 µg/mL) | 0.18 ×10⁻⁶ cm/s | 3.7 ×10⁻⁶ cm/s | 21 | 1.8 μL/min/1E6 | 3.1 µL/min/mg | 0.28 nM | <1 μL/min/1E6 | 0.28 ×10⁻⁶ cm/s |
| CN1CCC(F)(c2ccc3nccc(C(=O)NCC(=O)N4CSC[C@H]4C#N)c3c2)CC1 [Example 195, (R)—N-(2-(4-Cyanothiazolidin-3-yl)-2-oxoethyl)-6-(4-fluoro-1-methyl-piperidin-4-yl)quinoline-4-carboxamide] | 0.39 nM | 0.000061 s⁻¹ | 190000 M⁻¹ s⁻¹ | 0.33 nM | 0.9 nM | 1.4 nM | 1200 nM | 830 µM (≈ 366 µg/mL) | 0.4 ×10⁻⁶ cm/s | 4.8 ×10⁻⁶ cm/s | 12 | 1.8 μL/min/1E6 | < 3 µL/min/mg |  |  |  |
